The target of one assay is human DP2 (Homo sapiens (Human), UniProt Q9Y5Y4). The experiment in a line: DP-2 Binding Inhibition Assay (3H-PGD2 binding to membranes of K562 cells expressing DP2). To be noted: read-out: EC50 (Nm) 1% HSA; inhibition of 3H-PGD2 binding, 1% HSA. The method in brief: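 Radioligand filtration binding: ³H-PGD2 displacement from DP2-expressing K562 cell membranes, 60 min, room temperature, pH 7.4, under 0.1% BSA, 1% HSA or 4% HSA.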
human DP2, sequence (Q9Y5Y4 whole entry): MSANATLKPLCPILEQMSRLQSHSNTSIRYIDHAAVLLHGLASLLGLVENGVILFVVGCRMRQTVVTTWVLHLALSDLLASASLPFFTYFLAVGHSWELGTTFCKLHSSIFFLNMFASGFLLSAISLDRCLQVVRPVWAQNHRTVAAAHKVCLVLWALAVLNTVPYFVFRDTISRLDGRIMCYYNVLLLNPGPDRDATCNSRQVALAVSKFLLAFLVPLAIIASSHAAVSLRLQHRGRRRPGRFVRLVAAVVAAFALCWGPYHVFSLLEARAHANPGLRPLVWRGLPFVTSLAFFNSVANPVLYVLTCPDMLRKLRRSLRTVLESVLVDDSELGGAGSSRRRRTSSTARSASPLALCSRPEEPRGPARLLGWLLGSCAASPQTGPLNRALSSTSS
The EC50 is the concentration giving half of the maximal effect. For the compound `N#Cc1cc2c(cc1Oc1ccc(C(=O)NC3CC3c3ccc(Cl)cc3)cc1)OCCC2C(=O)O` (stereo not drawn) [Example 51, 7-(4-((2-(4-Chlorophenyl)cyclopropyl)carbamoyl)phenoxy)-6-cyano-3,4-dihydro-2H-chromene-4-carboxylic acid], the half-maximal effective concentration (EC50) came to 12.1 nM.

With `O=C(NCCc1ccc(Cl)cc1)c1ccc(Oc2cc3c(cc2Cl)C(C(=O)O)CCO3)cc1` (stereo not drawn) [Example 10, 6-Chloro-7-(4-(4-chlorophenethylcarbamoyl)phenoxy)chroman-4-carboxylic acid], the EC50 was 13.9 nM.

As to `N#Cc1cc2c(cc1Oc1ccc(C(=O)Nc3ccc(C(F)(F)F)cc3)cc1)OCCC2C(=O)O` (stereo not drawn) [Example 75, 6-Cyano-7-(4-(4-(trifluoromethyl)phenylcarbamoyl)phenoxy)chroman-4-carboxylic acid], the EC50 amounted to 11.9 nM.

With `N#Cc1cc2c(cc1Oc1ccc(C(=O)NC3COc4ccccc4C3)cc1)OCCC2C(=O)O` (stereo not drawn) [Example 52, 7-(4-(chroman-3-ylcarbamoyl)phenoxy)-6-cyanochroman-4-carboxylic acid], the 50% effective concentration (EC50) was found to be 90.8 nM.

Still in this assay, the particulars now being: read-out: EC50 (nM) 4% HSA; inhibition of 3H-PGD2 binding, 4% HSA.
In the case of `O=C(NCCc1ccc(C(F)(F)F)cc1C1CC1)c1ccc(Oc2cc3c(cc2Cl)C(C(=O)O)CCO3)cc1` (stereo not drawn) [Example 232, 6-chloro-7-(4-(2-cyclopropyl-4-(trifluoromethyl)phenethylcarbamoyl)phenoxy) chroman-4-carboxylic acid], the EC50 came out at 46.5 nM.

Consider `CC(C)(C)C1CCC(NC(=O)c2ccc(Oc3cc4c(cc3Cl)C(C(=O)O)CCO4)cc2)CC1` (stereo not drawn) [Example 156, 7-(4-(4-tert-butylcyclohexylcarbamoyl)phenoxy)-6-chlorochroman-4-carboxylic acid], for which the EC50 is 509 nM.

Consider `O=C(NCCSc1ccc(Cl)cc1)c1ccc(Oc2cc3c(cc2Cl)C(C(=O)O)CCO3)cc1` (stereo not drawn) [Example 113, Sodium 6-chloro-7-(4-(2-(4-chlorophenylthio)ethylcarbamoyl)phenoxy)chroman-4-carboxylate], for which the concentration giving a half-maximal response (EC50) was 2380 nM.

`O=C(NCCc1cc(Cl)ccc1Cl)c1ccc(Oc2cc3c(cc2Cl)C(C(=O)O)CCO3)cc1` (stereo not drawn) [Example 103, Sodium 6-chloro-7-(4-(2,5-dichlorophenethylcarbamoyl)phenoxy)chroman-4-carboxylate]: the concentration for a half-maximal effect (EC50) came out at 392 nM.

For `O=C(NC1CCCC(c2ccc(Cl)cc2)C1)c1ccc(Oc2cc3c(cc2Cl)C(C(=O)O)CCO3)cc1` (stereo not drawn) [Example 164, Sodium 6-chloro-7-(4-(3-(4-chlorophenyl)cyclohexylcarbamoyl)phenoxy)chroman-4-carboxylate], the concentration giving a half-maximal response (EC50) worked out at 183 nM.

In the case of `CCOc1ccc(CCNC(=O)c2ccc(Oc3cc4c(cc3Cl)C(C(=O)O)CCO4)cc2)c(OC)c1` (stereo not drawn) [Example 227, 6-chloro-7-(4-(4-ethoxy-2-methoxyphenethylcarbamoyl)phenoxy)chroman-4-carboxylic acid], the 50% effective concentration (EC50) turned out to be 74.5 nM.

As to `N#Cc1cc2c(cc1Oc1ccc(C(=O)NC3CC3c3ccc(Cl)cc3)cc1)OCCC2C(=O)O` (stereo not drawn) [Example 51, 7-(4-((2-(4-Chlorophenyl)cyclopropyl)carbamoyl)phenoxy)-6-cyano-3,4-dihydro-2H-chromene-4-carboxylic acid], the EC50 came out at 14.8 nM.

Consider `O=C(NCCc1ccc(Cl)cc1)c1ccc(Oc2cc3c(cc2Cl)C(C(=O)O)CCO3)cc1` (stereo not drawn) [Example 10, 6-Chloro-7-(4-(4-chlorophenethylcarbamoyl)phenoxy)chroman-4-carboxylic acid], for which the half-maximal effective concentration (EC50) amounted to 225 nM.

On to `Cc1cccc(-c2cccc(NC(=O)c3ccc(Oc4cc5c(cc4C#N)C(C(=O)O)CCO5)cc3)c2)c1C` (stereo not drawn) [Example 109, 6-Cyano-7-(4-(2′,3′-dimethylbiphenyl-3-ylcarbamoyl)phenoxy)chroman-4-carboxylic acid], for which the concentration for a half-maximal effect (EC50) is 104 nM.

`Cc1cccc(C2CCC(NC(=O)c3ccc(Oc4cc5c(cc4Cl)C(C(=O)O)CCO5)cc3)C2)c1` (stereo not drawn) [Example 169, Sodium 6-chloro-7-(4-(3-(3-methylphenyl)cyclopentylcarbamoyl)phenoxy)chroman-4-carboxylate]: the EC50 stood at 204 nM.

`CC(C)(C)C1CCC(NC(=O)c2ccc(Oc3cc4c(cc3C#N)C(C(=O)O)CCO4)cc2)CC1` (stereo not drawn) [Example 127, 7-(4-(4-tert-Butylcyclohexylcarbamoyl)phenoxy)-6-cyanochroman-4-carboxylic acid]: the EC50 worked out at 270 nM.

As for `COc1ccc(C2CCC(NC(=O)c3ccc(Oc4cc5c(cc4Cl)C(C(=O)O)CCO5)cc3)C2)cc1` (stereo not drawn) [Example 174, Sodium 6-chloro-7-(4-(3-(4-methoxyphenyl)cyclopentylcarbamoyl)phenoxy)chroman-4-carboxylate], the concentration for a half-maximal effect (EC50) worked out at 723 nM.

For the compound `O=C(NCCc1cccc(Cl)c1Cl)c1ccc(Oc2cc3c(cc2Cl)C(C(=O)O)CCO3)cc1` (stereo not drawn) [Example 139, Sodium 6-chloro-7-(4-(2,3-dichlorophenethylcarbamoyl)phenoxy)chroman-4-carboxylate], the concentration giving a half-maximal response (EC50) stood at 226 nM.

As to `O=C(NCCc1ccccc1OC(F)(F)F)c1ccc(Oc2cc3c(cc2Cl)C(C(=O)O)CCO3)cc1` (stereo not drawn) [Example 64, Sodium 6-chloro-7-(4-(2-(trifluoromethoxy)phenethylcarbamoyl)phenoxy)chroman-4-carboxylate], the 50% effective concentration (EC50) came to 153 nM.

Turning to `O=C(NCCc1ccc(Cl)cc1Br)c1ccc(Oc2cc3c(cc2Cl)C(C(=O)O)CCO3)cc1` (stereo not drawn) [Example 32, Sodium 7-(4-(2-bromo-4-chlorophenethylcarbamoyl)phenoxy)-6-chlorochroman-4-carboxylate], the concentration giving a half-maximal response (EC50) was found to be 88 nM.

As for `Cc1cc(Oc2cc3c(cc2Cl)C(C(=O)O)CCO3)ccc1C(=O)NCCc1ccc(Cl)cc1Cl` (stereo not drawn) [Example 183, Sodium 6-chloro-7-(4-(2,4-dichlorophenethylcarbamoyl)-3-methylphenoxy)chroman-4-carboxylate], the concentration for a half-maximal effect (EC50) turned out to be 968 nM.

For `O=C(NCCc1ccccc1F)c1ccc(Oc2cc3c(cc2Cl)C(C(=O)O)CCO3)cc1` (stereo not drawn) [Example 153, Sodium 6-chloro-7-(4-(2-fluorophenethylcarbamoyl)phenoxy)chroman-4-carboxylate], the EC50 amounted to 521 nM.

Turning to `CSc1ccc(C2CCCC(NC(=O)c3ccc(Oc4cc5c(cc4Cl)C(C(=O)O)CCO5)cc3)C2)cc1` (stereo not drawn) [Example 162, 6-Chloro-7-(4-(3-(4-(methylthio)phenyl)cyclohexylcarbamoyl)phenoxy)chroman-4-carboxylic acid], the EC50 came out at 430 nM.

Consider `CCOc1cc(Cl)c(Cl)cc1CCNC(=O)c1ccc(Oc2cc3c(cc2Cl)C(C(=O)O)CCO3)cc1` (stereo not drawn) [Example 201, sodium 6-chloro-7-(4-(4,5-dichloro-2-ethoxyphenethylcarbamoyl)phenoxy)chroman-4-carboxylate], for which the EC50 is 138 nM.

For the compound `O=C(NCCc1cc(F)ccc1Oc1ccc(Cl)cc1Cl)c1ccc(Oc2cc3c(cc2Cl)C(C(=O)O)CCO3)cc1` (stereo not drawn) [Example 213, sodium 6-chloro-7-(4-(2-(2,4-dichlorophenoxy)-5-fluorophenethylcarbamoyl)phenoxy)chroman-4-carboxylate], the EC50 was determined as 45.1 nM.

`O=C(NCCC1CCCCC1)c1ccc(Oc2cc3c(cc2Cl)C(C(=O)O)CCO3)cc1` (stereo not drawn) [Example 180, Sodium 6-chloro-7-(4-(2-cyclohexylethylcarbamoyl)phenoxy)chroman-4-carboxylate]: the 50% effective concentration (EC50) was 407 nM.

As for `O=C(NCCCc1ccc(Cl)cc1)c1ccc(Oc2cc3c(cc2Cl)C(C(=O)O)CCO3)cc1` (stereo not drawn) [Example 77, Sodium 6-chloro-7-(4-(3-(4-chlorophenyl)propylcarbamoyl)phenoxy)chroman-4-carboxylate], the EC50 is 356 nM.

With `O=C(N[C@H]1CCCN(c2cccc(Cl)c2)C1)c1ccc(Oc2cc3c(cc2Cl)C(C(=O)O)CCO3)cc1` (stereo partly drawn) [Example 125, Sodium 6-chloro-7-(4-((S)-1-(3-chlorophenyl)piperidin-3-ylcarbamoyl)phenoxy)chroman-4-carboxylate], the concentration giving a half-maximal response (EC50) was 421 nM.
